A compilation of properties of binary mixtures (doi:10.1016/j.jct.2014.10.022)

Assay: xn = mol fraction of the nth substance listed
Details: 100 kPa

CC[n+]1ccn(C)c1.O=S(=O)([O-])C(F)(F)C(F)F + CCCC[n+]1ccc(C)cc1.O=S(=O)([N-]S(=O)(=O)C(F)(F)F)C(F)(F)F
viscosity [mPa·s]
Details | x2 = 0.0504 | x2 = 0.112 | x2 = 0.2211 | x2 = 0.3324 | x2 = 0.4432 | x2 = 0.5529 | x2 = 0.6631 | x2 = 0.774 | x2 = 0.8828 | x2 = 0.9517
293.15 K | 115.9 | 113.9 | – | – | – | 95.1 | 89.1 | – | 78.9 | 75.3
303.15 K | 72 | 70.8 | 69.5 | – | 62.7 | 59.4 | 55.8 | 52.9 | 49.7 | –
313.15 K | – | – | 45.7 | 43.8 | – | 39.5 | – | 35.4 | 33.2 | 31.7
323.15 K | 33.3 | 32.8 | 31.7 | 30.6 | – | 27.6 | 26.5 | 25 | 23.4 | 22.4
333.15 K | 24.3 | 24 | 23.2 | 22.4 | – | – | – | 18.4 | 17.3 | 16.6
343.15 K | – | 18 | 17.3 | 16.8 | 16.2 | 15.2 | 14.7 | 13.9 | 13 | 12.5
353.15 K | 14.2 | 14 | 13.5 | 13.1 | 12.6 | 11.9 | 11.6 | – | – | 9.9

CCCC[n+]1ccc(C)cc1.O=S(=O)([N-]S(=O)(=O)C(F)(F)F)C(F)(F)F + CCOS(=O)(=O)[O-].CC[n+]1ccn(C)c1
viscosity [mPa·s]
Details | x2 = 0.0475 | x2 = 0.1177 | x2 = 0.226 | x2 = 0.3341 | x2 = 0.4479 | x2 = 0.558 | x2 = 0.6663 | x2 = 0.7776 | x2 = 0.886 | x2 = 0.9487
293.15 K | 78.7 | – | 100.8 | – | 132.9 | – | 150.8 | 149.6 | 141.6 | 133.5
303.15 K | 49.3 | 54 | 62.2 | 70.8 | 79.8 | – | 90.1 | – | 85.5 | 81.1
313.15 K | 33 | 36 | 41.1 | – | 51.7 | 55.9 | – | 57.9 | 55.7 | –
323.15 K | 23.3 | 25.3 | 28.6 | 31.9 | 35.5 | 38.2 | – | – | 38.3 | 36.8
333.15 K | 17.2 | – | 20.9 | – | 25.5 | – | – | 28.4 | 27.7 | 26.7
343.15 K | – | – | 15.6 | 17.1 | 18.9 | 20.2 | – | – | 20.6 | –
353.15 K | – | 11 | – | 13.3 | 14.5 | 15.5 | 16.1 | – | 15.9 | 15.4
